# Results as given in patent publication US20130209439A1, “INHIBITORS OF PDE4 BINDING TO HSP20” (THE UNIVERSITY COURT OF THE UNIVERSITY OF GLASGOW, priority 2010, published 2013).
# Where no end group is shown, it is not given here.
# Assays:
# [1] = system: neonatal cardiac myocytes; experiment: Cardiac myocyte cell size, manual cross-sectional area; assay type: cell-based, rat; settings: 24 hour isoprenaline 10 μM, 30 min pre-treatment with 10 μM peptide
# Experimental: FIG. 7. Peptide disruption of the PDE4D-HSP20 complex attenuates the hypertrophic response triggered by constant […]-agonist treatment. A, Upper panel. The area covered by isolated cardiac myocytes was used as a measure of cell size. Lower panel, Graphical depiction of the mean areas (N=100) of cells following 24 hours of indicated treatments. B, impedance measurements were used to calculate continuous normalised cell index using exCELLigence technology Normalised mean (n=4) cell index after 24 hours of indicated treatments.
# Cardiomyocytes were plated out on gelatin (Sigma) pre-coated 6-well plates and placed in an incubator at 37° C. and an atmosphere of 5% CO2. After 24 h the cardiomyocytes were cultured in a serum-free condition for 48 h before experiments. The cardiomyocytes were then challenged for 24 h with either 10 μM isoprenaline alone or isoprenaline following a 30 min pre-treatment with 10 μM rolipram, 10 μM bs906 or 10 μM control peptide. Thereafter, cell size was determined on phase-contrast microscope. […] from randomly selected microscope images (400×) were captured digitally and analysed. Cross-sectional area was determined by the following formula: cross-sectional area=(radius)^2×π. Values are expressed as means±SE of five separate culture preparations. A f-test was performed to compare the two groups, and the P values are indicated.
# [2] = system: phospho-HSP20 in HEK293 cells; experiment: HSP20 Ser16 phosphorylation in HSP20-transfected HEK293 cells treated with peptide; assay type: cell-based; settings: 10 μM peptide, 0-120 min
# From the text: (§1) FIG. 6. Peptide disruption of the PDE4D-HSP20 complex promotes PKA phosphorylation on Ser16. A, Upper panel. HEK293 cells were transfected with HSP20 and PDE4D5. Immunoprecipitation of HSP20 done in the presence increasing concentrations of Peptide 906 (SEQ ID NO: 36) and Peptide control (SEQ ID NO: 37) were probed for PDE4D5. Lower panel. Densitometric analysis of amount of PDE4D5 in HSP20 immunoprecipitates normalised to expression level. Data representative of n=3. B, Purified preparations of HSP20-His and PDE4D5-GST were subject to an ELISA assay containing increasing amounts of ‘Peptide 906’ and ‘peptide control’. C, Upper panel, HSP20 was transfected into HEK293 cells and treated with ‘Peptide 906’ for indicated times. Cellular lysates were blotted for HSP20 and phospho-HSP20. Middle panel, HSP20 was transfected into HEK293 cells and treated with ‘Peptide 906’ or ‘peptide control’ for indicated times. Cellular lysates were blotted for HSP20 and phospho-HSP20. Lower panel, Densitometric analysis of phosphorylation of HSP20 normalised to expression level (n=3).
# PolyFect transfection reagent was from Qiagen. […]
# HEK293B2 cells are a stable cell line overexpressing the GFP-tagged β2AR were cultured as previously described^48. […] Protein concentration of lysates were determined using the Bradford assay and all samples were equalised for protein concentration. […]
# [3] = target: T1, His-HSP20 / GST-PDE4D5 (Homo sapiens, UniProt O14558); experiment: Hsp20/PDE4D5 ELISA assay with purified proteins; assay type: binding; settings: increasing amounts of peptide
# T1 construct: made in house; host or cells: E. coli (BL21 for His-Hsp20)
# T1 sequence (O14558 1-160): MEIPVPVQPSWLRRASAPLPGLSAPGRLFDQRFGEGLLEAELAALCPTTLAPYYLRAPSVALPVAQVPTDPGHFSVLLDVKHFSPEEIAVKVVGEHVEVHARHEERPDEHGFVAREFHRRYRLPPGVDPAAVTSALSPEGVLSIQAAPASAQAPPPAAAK
# From the text: as §1
# His-HSP20 and GST-PDE4D5 were purified as previously described. […] Plates were read as soon as possible using the luminescence program on a Packard Fusion plate reader (1 s reading per well). […]
substance,measurement,setting,value
"Peptide 906: stearoylated, cell-permeable disrupter peptide of PDE4D5 residues E468-K492 (SEQ ID NO: 36) (ENHHLAVGFKLLQEENSDIFQNLTK; also: stearoylated, site not given here)",cell size (cross-sectional area) of cardiac myocytes,[1],could be rescued
same,phosphorylation of HSP20 at Ser16,[2],robust and significant increase in the phosphorylation of HSP20 at Ser16
same,association between PDE4D5 and HSP20 in ELISA with purified proteins,[3],attenuated the association between PDE4D5 and HSP20
